Measurements taken from PMC12948223, “HSP70 Interactome‐Mediated Proteolysis Targeting Chimera (HSP70‐PROTAC) for Ferroptosis‐Driven Cancer Treatment” (Advanced Science, 2025).

Experiments:
[1] = target: T1, GPX4 (Homo sapiens, UniProt P36969); assay: Quantitative proteomics of HT1080 cells; format: cell-based; set-up: determine the changes in the endogenous levels of GPX4 by western blot assay; endogenous in cells; host or cells: HT1080 fibrosarcoma cells, including siRNA-knockdown derivatives; details: 2 µM, 18 h
T1 sequence (P36969 1-170 isoform P36969-2): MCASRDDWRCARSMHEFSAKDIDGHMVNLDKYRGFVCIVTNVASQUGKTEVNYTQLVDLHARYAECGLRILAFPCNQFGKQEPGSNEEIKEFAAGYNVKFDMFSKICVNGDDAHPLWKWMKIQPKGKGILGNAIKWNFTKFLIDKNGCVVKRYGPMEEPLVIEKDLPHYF
Description: The proteomics data were generated by Shanghai Bioprofile Co., Ltd. After treatment with compound GDAz‐3 (2 µM) or DMSO for 18 h, the samples were collected. LC‐MS/MS analysis was conducted using an Orbitrap Astral zoom mass spectrometer paired with a Vanquish Neo UHPLC system (Thermo Fisher Scientific). Peptides from each sample were loaded into a column (50 cm Low‐Load µPAC Neo HPLC Column, Thermo Scientific) at a flow rate of 2.2 µL min^−1. The reversed‐phase high‐performance liquid chromatography (RP‐HPLC) mobile phases consisted of solvent A (0.1% formic acid in water) and solvent B (0.1% formic acid in 80% acetonitrile). Peptide elution was performed over 4.8 min with a linear gradient of buffer B at a flow rate 1.25 µL min^−1. The linear gradient was programmed as follows: 0–0.1 min, an increase from 4% to 6% solvent B; 0.1–1.1 min, from 6% to 12% buffer B; 1.1–4.3 min, from 12% to 25% buffer B; 4.3–6.1 min, from 25% to 45% buffer B; 6.1–6.5 min, from 45% to 99% buffer B; 6.5–8 min, buffer B maintained at 99%. The eluted peptides were subsequently analyzed on a Orbitrap Astral mass spectrometer. The DIA method consisted of a full scan m/z range of 380–980 at resolution 240 000 with AGC target of 500% and 5 ms injection time. […] Full MS scan spectra were recorded in profile mode, whereas DIA scan spectra were collected in centroid mode.

[2] = test system: SLC7A11; assay: Western blot of SLC7A11 in HT1080 cells; format: cell-based, human; details: 24 h
[3] = Pharmacokinetic study in ICR mice; format: in vivo; details: mouse; male ICR mice, IP, 30 mg/kg, plasma
Description: To evaluate the in vivo pharmacokinetic (PK) profile of the GDAz‐3 and explore its therapeutic potential, a single intraperitoneal (IP) injection (30 mg kg^−1) was conducted in male ICR mice. Plasma samples were collected at predetermined time points and analyzed using LC‐MS/MS.
The tested compound GDAz‐3 was IP administered to ICR mice (male, n = 3 per time‐point). Blood samples were collected at 0.0833, 0.25, 0.5, 1, 2, 4, 8, and 24 h after IP administration (30 mg kg^−1) and then centrifuged at 6800 g for 6 min at 4 °C to obtain plasma, which were stored at −80 °C until analysis The compound concentrations in plasma were determined by liquid chromatography‐tandem mass spectrometry (API5000 LC‐MS/MS).

[4] = test system: intracellular LPO; assay: Intracellular LPO (C11-BODIPY 581/591, flow cytometry) in HT1080 cells; format: cell-based, human; details: 12 h
Description: The level of LPO was determined by flow cytometry using the C11‐BODIPY^581/591 dye. In short, HT1080 cells were incubated in 6‐well plates at a density of 5 × 10^4 cells per well for 24 h. After that, the culture medium was substituted with a fresh medium containing GDAz‐3, ML162, or a mixture of GDAz‐3 and Fer‐1 at the specified concentrations. Following a 12‐h incubation period, HT1080 cells were stained with C11‐BODIPY^581/591 dye for 10 min. Finally, the cell samples were collected, washed twice with phosphate‐buffered saline (PBS), and then analyzed by flow cytometry.

[5] = target: T2, GPX4 (Homo sapiens, UniProt P36969); assay: SPR binding to GPX4 recombinant protein
T2 construct: purchased Cayman 26 906
T2 sequence (P36969 28-197 limits assumed): T1 sequence (P36969 1-170 isoform P36969-2)
Description: The SPR data was generated by our Shared Instrumentation Core Facility at the Hangzhou Institute of Medicine (HIM), Chinese Academy of Sciences. The in vitro binding affinity of compound GDAz‐3 to recombinant proteins (Hsc70, MedChemExpress, #HY‐P73915A; GPX4, Cayman, Item No. 26 906) was evaluated using a Biacore 8K system (Cytiva (GE)) with the method of LMW multi‐cycle kinetics/affinity. Pipelines and chips were flushed with PBS (pH 7.4) running buffer, and then, human Hsc70 was immobilized on a CM5 sensor chip. Analysis was performed at a flow rate of 30 µL min^−1 at 25 °C with the injection of incremental concentrations of compounds dissolved in buffer solution (the final concentration of DMSO was 5%). For ternary‐complex binding measurements, Hsc70 was immobilized on a CM5 sensor chip, and compound GDAz‐3 at a concentration of 1 µM was preincubated with GPX4. The binding and dissociation durations were recorded as response unit values for 120 and 120 s in succession, respectively. Finally, the data were analyzed by Biacore evaluation software with the method of LMW multi‐cycle kinetics/affinity.

[6] = target: T3, GPX1 (Homo sapiens, UniProt P07203); assay: Western blot of GPX1 in HT1080 cells; format: cell-based; details: 24 h
T3 construct: endogenous in cells; host or cells: HT1080
T3 sequence (P07203 1-203): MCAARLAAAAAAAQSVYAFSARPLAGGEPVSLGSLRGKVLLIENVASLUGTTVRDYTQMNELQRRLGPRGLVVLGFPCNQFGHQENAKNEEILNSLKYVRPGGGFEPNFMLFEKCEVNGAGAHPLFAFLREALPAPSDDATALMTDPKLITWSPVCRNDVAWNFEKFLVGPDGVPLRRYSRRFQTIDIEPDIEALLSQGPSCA

COc1ccc(-c2nc(-c3cc(C(F)(F)F)cc(C(F)(F)F)c3)n(Cc3ccc(C(=O)NCCOCCOCCOCCn4cc(COc5ccc(N(C(=O)CCl)C(C(=O)NCCc6ccccc6)c6cccs6)cc5Cl)nn4)cc3)c2-c2ccc(OC)cc2)cc1 (centres unmarked) [GDAz-3, 4-((2-(3,5-bis(trifluoromethyl)phenyl)-4,5-bis(4-methoxyphenyl)-1H-imidazol-1-yl)methyl)-N-(2-(2-(2-(2-(4-((2-chloro-4-(2-chloro-N-(2-oxo-2-(phenethylamino)-1-(thiophen-2-yl)ethyl)acetamido)phenoxy)methyl)-1H-1,2,3-triazol-1-yl)ethoxy)ethoxy)ethoxy)ethyl)benzamide]
Proteomics profiling, GPX4 abundance [1]: clear degradation of GPX4
Effect on SLC7A11 protein [2]: did not show a significant effect
AUC(0-inf) [3]: 3140 ng·h/mL
AUC(0-t) [3]: 2450 ± 939 ng·h/mL
Cmax [3]: 201 ng/mL
MRT inf [3]: 15.5 ± 1.31 h
Tmax [3]: 4 h
half-life [3]: 10.2 h
Fluorescence intensity of C11-BODIPY 581/591 (lipid peroxidation) [4]: markedly enhanced
Kd [5]: 1170 nM
Effect on GPX1 protein [6]: did not show a significant effect
